From ChEMBL document CHEMBL2413072, “Synthesis and in vitro anticancer studies of novel C-2 arylidene congeners of lantadenes” (2013)

Assays:
Assay type in all cases: functional
Malme-3M [1] = assay: Growth inhibition of human MALME-3M cells assessed as cell growth at 10^-8 M by sulforhodamine B assay; conditions: read-out: Activity
HOP-92 = assay: Growth inhibition of human HOP92 cells by sulforhodamine B assay
NCI-H226 = assay: Growth inhibition of human NCI-H226 cells assessed as cell growth at 10^-8 M by sulforhodamine B assay; conditions: read-out: Activity
SF-539 = assay: Growth inhibition of human SF539 cells assessed as cell growth at 10^-6 M by sulforhodamine B assay; conditions: read-out: Activity
CCRF-CEM = assay: Growth inhibition of human CCRF-CEM cells assessed as cell growth at 10^-8 M by sulforhodamine B assay; conditions: read-out: Activity
OVCAR-4 [2] = assay: Growth inhibition of human OVCAR4 cells assessed as cell growth at 10^-8 M by sulforhodamine B assay; conditions: read-out: Activity
SK-MEL-5 = assay: Growth inhibition of human SK-MEL-5 cells assessed as cell growth at 10^-7 M by sulforhodamine B assay; conditions: read-out: Activity
OVCAR-5 = assay: Growth inhibition of human OVCAR5 cells assessed as cell growth at 10^-4 M by sulforhodamine B assay; conditions: read-out: Activity
KM12 = assay: Growth inhibition of human KM12 cells assessed as cell growth at 10^-8 M by sulforhodamine B assay; conditions: read-out: Activity
OVCAR-4 [3] = assay: Growth inhibition of human OVCAR4 cells assessed as cell growth at 10^-6 M by sulforhodamine B assay; conditions: read-out: Activity
UO-31 = assay: Growth inhibition of human UO31 cells assessed as cell growth at 10^-4 M by sulforhodamine B assay; conditions: read-out: Activity
HL-60(TB) = assay: Growth inhibition of human HL-60(TB) cells by sulforhodamine B assay
NCI-H522 = assay: Growth inhibition of human NCI-H522 cells assessed as cell growth at 10^-7 M by sulforhodamine B assay; conditions: read-out: Activity
UACC-257 = assay: Growth inhibition of human UACC257 cells assessed as cell growth at 10^-7 M by sulforhodamine B assay; conditions: read-out: Activity
K562 [4] = assay: Growth inhibition of human K562 cells assessed as cell growth at 10^-8 M by sulforhodamine B assay; conditions: read-out: Activity
HCT-116 [5] = assay: Growth inhibition of human HCT116 cells assessed as cell growth at 10^-4 M by sulforhodamine B assay; conditions: read-out: Activity
[6] = Growth inhibition of human NCI-ADR-RES cells assessed as cell growth at 10^-7 M by sulforhodamine B assay; conditions: read-out: Activity
UACC-62 = assay: Growth inhibition of human UACC62 cells assessed as cell growth at 10^-8 M by sulforhodamine B assay; conditions: read-out: Activity
K562 [7] = assay: Growth inhibition of human K562 cells assessed as cell growth at 10^-4 M by sulforhodamine B assay; conditions: read-out: Activity
DU-145 = assay: Growth inhibition of human DU145 cells assessed as cell growth at 10^-8 M by sulforhodamine B assay; conditions: read-out: Activity
SF-295 [8] = assay: Growth inhibition of human SF295 cells by sulforhodamine B assay
M14 = assay: Growth inhibition of human M14 cells assessed as cell growth at 10^-8 M by sulforhodamine B assay; conditions: read-out: Activity
SF-295 [9] = assay: Growth inhibition of human SF295 cells assessed as cell growth at 10^-8 M by sulforhodamine B assay; conditions: read-out: Activity
HCT-15 = assay: Growth inhibition of human HCT15 cells assessed as cell growth at 10^-6 M by sulforhodamine B assay; conditions: read-out: Activity
NCI-H23 = assay: Growth inhibition of human NCI-H23 cells assessed as cell growth at 10^-8 M by sulforhodamine B assay; conditions: read-out: Activity
Malme-3M [10] = assay: Growth inhibition of human MALME-3M cells assessed as cell growth at 10^-4 M by sulforhodamine B assay; conditions: read-out: Activity
HCT-116 [11] = assay: Growth inhibition of human HCT116 cells assessed as cell growth at 10^-8 M by sulforhodamine B assay; conditions: read-out: Activity
SR = assay: Growth inhibition of human SR cells assessed as cell growth at 10^-4 M by sulforhodamine B assay; conditions: read-out: Activity
ACHN = assay: Growth inhibition of human ACHN cells by sulforhodamine B assay
SK-OV-3 = assay: Growth inhibition of human SKOV3 cells assessed as cell growth at 10^-4 M by sulforhodamine B assay; conditions: read-out: Activity
LOX IMVI = assay: Growth inhibition of human LOXIMVI cells by sulforhodamine B assay
NCI-H322M [12] = assay: Growth inhibition of human NCI-H322M cells by sulforhodamine B assay
MOLT-4 = assay: Growth inhibition of human MOLT4 cells by sulforhodamine B assay
MDA-MB-231 = assay: Growth inhibition of human MDA-MB-231 cells assessed as cell growth at 10^-7 M by sulforhodamine B assay; conditions: read-out: Activity
RXF 393 = assay: Growth inhibition of human RXF393 cells by sulforhodamine B assay
[13] = Growth inhibition of human Hs 578T cells assessed as cell growth at 10^-8 M by sulforhodamine B assay; conditions: read-out: Activity
U-251 = assay: Growth inhibition of human U251 cells assessed as cell growth at 10^-7 M by sulforhodamine B assay; conditions: read-out: Activity
NCI-H322M [14] = assay: Growth inhibition of human NCI-H322M cells assessed as cell growth at 10^-7 M by sulforhodamine B assay; conditions: read-out: Activity
SF-268 = assay: Growth inhibition of human SF268 cells assessed as cell growth at 10^-8 M by sulforhodamine B assay; conditions: read-out: Activity
[15] = read-out: LC50 (the source's name)
[16] = read-out: pLC50 (the source's name) (converted)

Compound: CC(C)=CC(=O)O[C@@H]1CC(C)(C)C[C@H]2C3=CC[C@@H]4[C@@]5(C)CC[C@H](O)C(C)(C)[C@@H]5CC[C@@]4(C)[C@]3(C)CC[C@@]12C(=O)O [Reduced Lantadene B]
- growth at 0.01 µM (Malme-3M [1]): 94%
- GI50 (HOP-92; read-out: GI50): 1.51 µM
- CC50 (HOP-92; [15]): 16.3 µM
- TGI (HOP-92; read-out: TGI): 4.23 µM
- GI50 (HOP-92; read-out: pGI50 (converted)): 1.51 µM
- CC50 (HOP-92; [16]): 16.2 µM
- TGI (HOP-92; read-out: pTGI (converted)): 4.27 µM
- growth at 0.01 µM (NCI-H226): 96%
- growth at 1 µM (SF-539): 92%
- growth at 0.01 µM (CCRF-CEM): 103%
- growth at 0.01 µM (OVCAR-4 [2]): 100%
- growth at 0.1 µM (SK-MEL-5): 91%
- growth at 100 µM (OVCAR-5): -51%
- growth at 0.01 µM (KM12): 100%
- growth at 1 µM (OVCAR-4 [3]): 83%
- growth at 100 µM (UO-31): -87%
- GI50 (HL-60(TB); read-out: GI50): 2.52 µM
- CC50 (HL-60(TB); [15]): 86.3 µM
- TGI (HL-60(TB); read-out: TGI): 6.86 µM
- GI50 (HL-60(TB); read-out: pGI50 (converted)): 2.51 µM
- CC50 (HL-60(TB); [16]): 87.1 µM
- TGI (HL-60(TB); read-out: pTGI (converted)): 6.92 µM
- growth at 0.1 µM (NCI-H522): 102%
- growth at 0.1 µM (UACC-257): 93%
- growth at 0.01 µM (K562 [4]): 114%
- growth at 100 µM (HCT-116 [5]): -80%
- growth at 0.1 µM [6]: 99%
- growth at 0.01 µM (UACC-62): 94%
- growth at 100 µM (K562 [7]): -1%
- growth at 0.01 µM (DU-145): 101%
- GI50 (SF-295 [8]; read-out: GI50): 1.45 µM
- CC50 (SF-295 [8]; [15]): 52.8 µM
- TGI (SF-295 [8]; read-out: TGI): 11.1 µM
- GI50 (SF-295 [8]; read-out: pGI50 (converted)): 1.45 µM
- CC50 (SF-295 [8]; [16]): 52.5 µM
- TGI (SF-295 [8]; read-out: pTGI (converted)): 11.2 µM
- growth at 0.01 µM (M14): 94%
- growth at 0.01 µM (SF-295 [9]): 95%
- growth at 1 µM (HCT-15): 58%
- growth at 0.01 µM (NCI-H23): 95%
- growth at 100 µM (Malme-3M [10]): -46%
- growth at 0.01 µM (HCT-116 [11]): 99%
- growth at 100 µM (SR): -26%
- GI50 (ACHN; read-out: GI50): 2.93 µM
- CC50 (ACHN; [15]): 58.5 µM
- TGI (ACHN; read-out: TGI): 20.4 µM
- GI50 (ACHN; read-out: pGI50 (converted)): 2.95 µM
- CC50 (ACHN; [16]): 58.9 µM
- TGI (ACHN; read-out: pTGI (converted)): 20.4 µM
- growth at 100 µM (SK-OV-3): -62%
- GI50 (LOX IMVI; read-out: GI50): 9.09 µM
- CC50 (LOX IMVI; [15]): > 100 µM
- TGI (LOX IMVI; read-out: TGI): 38.2 µM
- GI50 (LOX IMVI; read-out: pGI50 (converted)): 9.12 µM
- CC50 (LOX IMVI; [16]): > 100 µM
- TGI (LOX IMVI; read-out: pTGI (converted)): 38 µM
- GI50 (NCI-H322M [12]; read-out: GI50): 3.62 µM
- LC50 (50% lethal concentration) (NCI-H322M [12]; read-out: LC50): 58 µM
- TGI (NCI-H322M [12]; read-out: TGI): 15 µM
- GI50 (NCI-H322M [12]; read-out: pGI50 (converted)): 3.63 µM
- LC50 (50% lethal concentration) (NCI-H322M [12]; read-out: pLC50 (converted)): 57.5 µM
- TGI (NCI-H322M [12]; read-out: pTGI (converted)): 15.1 µM
- GI50 (MOLT-4; read-out: GI50): 3.02 µM
- CC50 (MOLT-4; [15]): > 100 µM
- TGI (MOLT-4; read-out: TGI): 20.6 µM
- GI50 (MOLT-4; read-out: pGI50 (converted)): 3.02 µM
- CC50 (MOLT-4; [16]): > 100 µM
- TGI (MOLT-4; read-out: pTGI (converted)): 20.4 µM
- growth at 0.1 µM (MDA-MB-231): 97%
- GI50 (RXF 393; read-out: GI50): 2.58 µM
- CC50 (RXF 393; [15]): 35.6 µM
- TGI (RXF 393; read-out: TGI): 7.69 µM
- GI50 (RXF 393; read-out: pGI50 (converted)): 2.57 µM
- CC50 (RXF 393; [16]): 35.5 µM
- TGI (RXF 393; read-out: pTGI (converted)): 7.76 µM
- growth at 0.01 µM [13]: 96%
- growth at 0.1 µM (U-251): 96%
- growth at 0.1 µM (NCI-H322M [14]): 89%
- growth at 0.01 µM (SF-268): 93%
